Literature values, collected in US20140255503A1, “PHARMACEUTICAL COMPOSITION OF OMEPRAZOLE” (LABORATORIOS DEL DR. ESTEVE, S.A., priority 2011, published 2014).

How the values were obtained:
[1] = not given; remark: listed apart in the source

## COc1ccc2[nH]c([S+]([O-])Cc3ncc(C)c(OC)c3C)nc2c1 (stereo not shown) [Omeprazole, 5-methoxy-2-(4-methoxy-3,5-dimethylpyridin-2-ylmethylsulfinyl)-1H-benzimidazole]
acetone
  Solubility in acetone: slightly soluble
ethanol
  Solubility in ethanol: freely soluble
isopropanol
  Solubility in isopropanol: slightly soluble
methanol
  Solubility in methanol: freely soluble
water
  Solubility in water: very slightly soluble
[1]; acid media
  Stability in acid media: rapidly degraded
[1]; alkaline conditions
  Stability under alkaline conditions: acceptable stability
